Source: publication PMC7108291 (Spectrochimica Acta. Part A, Molecular and Biomolecular …, 2009)

Tests used:
Experiment in all cases: tryptophan fluorescence quenching titration at […] °C
Format in all cases: binding
DNase I = DNase I (Bos taurus, UniProt P00639)
RNase A = biological target: T1, RNase A (Bos taurus, UniProt P61823)
T1 sequence (P61823 27-150): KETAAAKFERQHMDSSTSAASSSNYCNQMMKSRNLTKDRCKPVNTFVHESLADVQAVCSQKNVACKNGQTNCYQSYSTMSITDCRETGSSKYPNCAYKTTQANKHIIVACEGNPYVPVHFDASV

Taq polymerase = Taq polymerase (Thermus aquaticus, UniProt P19821)
Chain of Taq polymerase (P19821 whole entry): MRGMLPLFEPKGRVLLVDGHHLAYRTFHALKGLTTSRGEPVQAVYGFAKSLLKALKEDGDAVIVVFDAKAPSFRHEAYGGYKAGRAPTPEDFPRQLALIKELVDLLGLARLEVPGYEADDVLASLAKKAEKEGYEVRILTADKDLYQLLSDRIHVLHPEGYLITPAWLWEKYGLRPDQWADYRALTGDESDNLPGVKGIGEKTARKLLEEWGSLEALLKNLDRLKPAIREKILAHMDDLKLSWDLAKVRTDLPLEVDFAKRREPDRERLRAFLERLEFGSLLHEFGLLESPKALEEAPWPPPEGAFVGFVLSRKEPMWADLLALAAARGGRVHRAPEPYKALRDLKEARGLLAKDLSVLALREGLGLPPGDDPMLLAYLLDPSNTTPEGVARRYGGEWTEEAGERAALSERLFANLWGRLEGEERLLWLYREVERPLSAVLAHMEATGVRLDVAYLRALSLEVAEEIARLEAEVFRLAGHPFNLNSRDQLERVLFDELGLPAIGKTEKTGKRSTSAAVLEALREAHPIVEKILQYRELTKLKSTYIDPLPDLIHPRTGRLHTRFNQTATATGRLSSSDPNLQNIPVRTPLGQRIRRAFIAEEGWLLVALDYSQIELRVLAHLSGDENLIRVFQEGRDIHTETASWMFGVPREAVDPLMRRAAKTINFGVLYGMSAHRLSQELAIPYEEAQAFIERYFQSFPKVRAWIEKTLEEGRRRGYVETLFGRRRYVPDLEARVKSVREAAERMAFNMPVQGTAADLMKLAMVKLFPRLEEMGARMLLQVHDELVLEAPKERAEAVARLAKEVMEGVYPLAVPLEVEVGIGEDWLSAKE

Chain of DNase I (P00639 23-282): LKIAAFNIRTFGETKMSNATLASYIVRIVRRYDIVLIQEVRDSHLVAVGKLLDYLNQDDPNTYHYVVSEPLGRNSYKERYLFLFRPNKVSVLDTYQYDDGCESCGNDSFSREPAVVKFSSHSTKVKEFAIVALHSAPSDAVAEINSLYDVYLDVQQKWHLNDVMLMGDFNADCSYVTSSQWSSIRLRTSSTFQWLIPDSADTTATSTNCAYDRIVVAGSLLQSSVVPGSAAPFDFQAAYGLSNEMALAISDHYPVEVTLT

- Kd (DNase I): 9.02 µM
- Kd (RNase A): 2.33 µM
- Kd (Taq polymerase): 82 µM
Compound: O=C(O)C1=CC(=C(c2ccc(O)c(C(=O)O)c2)c2ccc(O)c(C(=O)O)c2)C=CC1=O [ATA, aurintricarboxylic acid]
